{
  "source": "ChEMBL document CHEMBL4028825",
  "about": "“Pharmacological evaluation of a novel series of urea, thiourea and guanidine derivatives as P2X7 receptor antagonists” (Bioorg Med Chem Lett, 2017)",
  "target": "T1, P2X purinoceptor 7 (Homo sapiens, UniProt Q99572)",
  "T1 sequence (Q99572 whole entry)": "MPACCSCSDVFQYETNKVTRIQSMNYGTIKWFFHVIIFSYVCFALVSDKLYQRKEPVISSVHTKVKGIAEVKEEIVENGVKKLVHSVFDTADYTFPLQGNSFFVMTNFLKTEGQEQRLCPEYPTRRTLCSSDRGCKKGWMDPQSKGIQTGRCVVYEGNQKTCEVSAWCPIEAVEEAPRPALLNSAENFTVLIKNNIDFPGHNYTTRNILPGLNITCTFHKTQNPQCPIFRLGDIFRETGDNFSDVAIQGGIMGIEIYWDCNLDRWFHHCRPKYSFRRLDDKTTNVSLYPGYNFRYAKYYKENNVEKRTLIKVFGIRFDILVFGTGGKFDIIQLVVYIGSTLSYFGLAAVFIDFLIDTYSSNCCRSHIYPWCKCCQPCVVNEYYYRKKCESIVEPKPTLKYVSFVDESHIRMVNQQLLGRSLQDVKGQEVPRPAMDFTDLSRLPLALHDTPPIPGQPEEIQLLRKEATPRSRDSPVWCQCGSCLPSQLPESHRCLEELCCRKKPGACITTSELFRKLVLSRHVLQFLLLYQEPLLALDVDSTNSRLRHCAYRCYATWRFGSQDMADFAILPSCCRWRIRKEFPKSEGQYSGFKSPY",
  "experiment": "Antagonist activity at P2X7 receptor in human THP1 cells assessed as inhibition of BzATP-induced YO-PRO-1 Iodide uptake measured every 30 secs for 1 hr by fluorescence assay",
  "format": "cell-based",
  "data": [
    {"smiles": "O=C(NCc1ccccc1)NCC12CC3CC(CC(C3)C1)C2", "values": [
      {"measurement": "IC50", "setting": "read-out: IC50", "value": 4.54, "unit": "µM"}
    ]},
    {"smiles": "O=C(NCc1cccnc1)NCC12CC3CC(CC(C3)C1)C2", "values": [
      {"measurement": "IC50", "setting": "read-out: IC50", "value": 3.38, "unit": "µM"}
    ]},
    {"smiles": "S=C(NCC12CC3CC(CC(C3)C1)C2)Nc1ccccc1", "values": [
      {"measurement": "IC50", "setting": "read-out: IC50", "value": 2.42, "unit": "µM"}
    ]},
    {"smiles": "N=C(NCc1ccccc1)NCC12CC3CC(CC(C3)C1)C2", "values": [
      {"measurement": "IC50", "setting": "read-out: IC50", "value": "> 10", "unit": "µM"}
    ]},
    {"smiles": "O=C(NCc1ccccn1)NCC12CC3CC(CC(C3)C1)C2", "values": [
      {"measurement": "IC50", "setting": "read-out: IC50", "value": 5.95, "unit": "µM"}
    ]},
    {"smiles": "O=C(NCC12CC3CC(CC(C3)C1)C2)Nc1ccccc1", "values": [
      {"measurement": "IC50", "setting": "read-out: IC50", "value": 4.96, "unit": "µM"}
    ]},
    {"smiles": "O=C(NCc1ccncc1)NCC12CC3CC(CC(C3)C1)C2", "values": [
      {"measurement": "IC50", "setting": "read-out: IC50", "value": 6.75, "unit": "µM"}
    ]},
    {"smiles": "N=C(NCC12CC3CC(CC(C3)C1)C2)Nc1ccccc1", "values": [
      {"measurement": "IC50", "value": "Nd(Insoluble)"}
    ]},
    {"smiles": "S=C(NCc1ccccc1)NCC12CC3CC(CC(C3)C1)C2", "values": [
      {"measurement": "IC50", "setting": "read-out: IC50", "value": 4.24, "unit": "µM"}
    ]},
    {"smiles": "O=C(NCCc1ccccc1)NCC12CC3CC(CC(C3)C1)C2", "values": [
      {"measurement": "IC50", "setting": "read-out: IC50", "value": 6.41, "unit": "µM"}
    ]}
  ]
}
